Reference: patent US20230285347A1, “Preterm Labour with Prostaglandin E2 Receptor Agonists” (IMPERIAL COLLEGE INNOVATIONS LIMITED, priority 2020, published 2023)

Key:
[1] = target: T1, human FLAG-tagged EP2 (Homo sapiens, UniProt P43116); experiment: cAMP induction in HEK 293 cells stably expressing EP2 (Gαs readout); type: cell-based; conditions: HEK 293 EP2 cells; 5 minutes of stimulation; no significant difference between ligands; FIG. 2
T1 construct: FLAG; expressed in transfected cells
Description: EP2 is a dually coupled GPCR capable of activating downstream signalling pathways via Gαs (anti-labour inducing) and Gαq/11 (pro-labour inducing).
HEK 293 cells were maintained in DMEM (Dulbecco's Modified Eagle Medium) containing 10% fetal bovine serum and 100 μ/ml penicillin-streptomycin, and cultured in 75 cm flasks at 37° C. in 95% air and 5% CO2. Cells at 95% confluency were passaged using 0.25% trypsin with 0.02% EDTA in phosphate-buffered saline (PBS).
(§1) Confluent myometrial cells were treated with/without OT (100 nM) for 1 hour before 3 PBS washes and the addition of […] IBMX (3-isobutyl-1-methylxanthine) in PBS for 5 minutes at 37° C. This was exchanged for 0.5 μM IBMX in PBS plus either DMSO, butaprost (10 μM), AH13205 (10 μM) or PGN9856i (100 nM) for […]. Cells were lysed in Cisbio cAMP lysis buffer with 0.2% TritonX-100 and centrifuged for 15 minutes at 16,000 g. Lysates were normalized to protein concentration determined by Coomassie (Bradford) Protein Assay Kit and analysed as per manufacturers' protocol (Cisbio Gαs dynamic assay) using a PHERAstar FSX.

[2] = target: T2, human FLAG-EP2 (Homo sapiens, UniProt P43116); experiment: Intracellular Ca2+ release in HEK 293 cells stably expressing EP2 (Fluo-4, confocal; Gαq/11 readout); type: cell-based; conditions: HEK 293 EP2 cells; butaprost 10 μM, AH13205 10 μM, PGN9856i 100 nM; vs vehicle; FIG. 3
T2 construct: FLAG; expressed in transfected cells
Description: To measure Gαq/11 activation, HEK 293 cells stably expressing human FLAG-EP2 were pre-labelled with a Ca2+ indicator dye and acutely stimulated with each ligand.
HEK 293 cells, prepared following the same methodology as outlined in Example 1, were seeded onto Mattek dishes with 14 mm by 1.5 mm glass coverslips. Cells were incubated with Fluo-4am Ca2+ indicator (ThermoFisher) as per manufacturer's instructions. […]. Time-series images were acquired using a Leica SP5 confocal microscope, Leica LAS AF image acquisition software and a 488 nm excitation laser. HEK cells were imaged using a 10× dry objective. EP2 agonists (butaprost 10 μM, AH13205 10 μM or PGN9856i 100 nM) were added following measurement of basal fluorescence. Raw files were analysed using Fiji Time series analyser plugin to find the maximal fluorescent intensity, which was then averaged across cells in each condition.
The maximal fluorescence intensity was measured by live confocal microscopy.

[3] = target: T2, human FLAG-EP2; experiment: PGE2 release by ELISA in HEK 293 cells stably expressing EP2; type: cell-based; conditions: HEK 293 EP2 cells; 6 hours; butaprost 10 μM, AH13205 10 μM, PGN9856i 100 nM; FIG. 4
Description: COX-2 is an inflammatory mediator that drives PGE2 production. The inventors had previously shown EP2-dependent COX-2 release to be downstream of Ca2+ release in primary human myometrium and that 6-hour agonist treatment is necessary for increasing COX-2 levels and PGE2 secretion (Kandola et al, 2014). HEK 293 cells stably expressing human FLAG-EP2 were stimulated for 6 hours with an EP2 agonist (butaprost 10 μM, AH13205 10 μM or PGN9856i 100 nM) or DMSO. 1 mL media was collected from COX-2 experiments and immediately frozen at −80 degrees Celsius. […]

[4] = target: T3, EP2 (Homo sapiens, UniProt P43116); experiment: cAMP in non-labouring myometrial cells with/without oxytocin pre-treatment; type: cell-based; conditions: OT pre-treatment 1 hour, 100 nM; butaprost 10 μM, AH13205 10 μM, PGN9856i 100 nM; FIG. 10
T3 construct: primary human myocytes cultured from term pregnant, non-labouring, myometrium; endogenous in cells; host or cells: primary human myometrial cells (myocytes) cultured from pregnant myometrium
Description: Myometrial cells with/without oxytocin (OT) pre-treatment (1 hour, 100 nM) were treated with IBMX (5 minutes, 0.5 mM) before 1 minute stimulation with IBMX with/without either DMSO, butaprost (10 μM), AH13205 (10 μM) or PGN9856i (100 nM). cAMP concentrations were normalised to protein. Each patient's data normalised to butaprost response and shown as mean±SEM, n=6. One-sample t-test: #p<0.05. ##p<0.01. One-way ANOVA with Sidak's multiple comparison post-hoc test: **p<0.01.
as §1

[5] = target: T3, EP2; experiment: Intracellular cAMP in primary human myocytes from term pregnant non-labouring myometrium; type: cell-based; conditions: butaprost 10 μM, AH13205 10 μM, PGN9856i 100 nM, FIG. 5
Description: In the myometrium EP2 is an important regulator of parturition. To assess if PGN9856i, butaprost and AH13205 induce similar second messenger profiles in the myometrium as HEK 293 cells, primary human myocytes cultured from term pregnant, non-labouring, myometrium, were treated with each ligand and intracellular cAMP, calcium and PGE2 release was measured.
Myometrial tissue was acquired at St. Mary's hospital, Queen Charlotte and Chelsea hospital and Charing Cross hospital, London. Tissue was obtained from women provided with informed written consent with the approval from the Riverside Research Ethics Committee (RREC 3357, 1997-5089, 19/LO/1657) and experiments were carried out under the committee's guidelines and recommendations. Tissues were obtained from term (38+0-40 weeks gestation) pregnant women undergoing elective caesarean from the upper margin of the incision made at the lower segment of the uterus, before or after the onset of labor. Tissues taken from women in early labour (<3 cm cervical dilation) or late labour (>3 cm cervical dilation) with/without induction with syntocinon, an oxytocin analogue. Tissue was only taken from uncomplicated, singleton pregnancies.
Tissue was stored at 4° C. in phosphate buffered saline until fine dissection with scalpels and dissociation at 37° C. for 1 hour in a sterile-filtered mix of Dulbecco's modified Eagle's medium (DMEM) (Sigma Aldrich)/Ham's F-12 Nutrient Mixture (Sigma Aldrich) and serum-free DMEM (Sigma Aldrich) (1:1 v/v) containing collagenase 1A (Sigma Aldrich)(1 mg/ml), collagenase X (Sigma Aldrich)(1 mg/ml) and bovine serum albumin (Sigma Aldrich) (2 mg/ml). […]
Confluent myometrial cells were treated with/without OT (100 nM) for 1 hour before 3 PBS washes and the addition of […] IBMX (3-isobutyl-1-methylxanthine) in PBS for 5 minutes at 37° C. […] Lysates were normalized to protein concentration determined by Coomassie (Bradford) Protein Assay Kit and analysed as per manufacturers' protocol (Cisbio Gαs dynamic assay) using a PHERAstar FSX.

[6] = target: T3, EP2; experiment: Intracellular calcium in myometrial cells with/without oxytocin pre-treatment; type: cell-based; conditions: OT pre-treatment 1 hour, 100 nM; butaprost 10 μM, AH13205 10 μM, PGN9856i 100 nM; FIG. 11
Description: Intracellular calcium response in myometrial cells with/without OT pre-treatment (1 hour, 100 nM) stimulated with butaprost (10 μM), AH13205 (10 μM) or PGN9856i (100 nM). Data are the mean of the maximum fluorescence intensity for each cell measured normalised to background (F-FO). Shown as fold-change over butaprost response. One-way ANOVA with Dunnett's multiple comparison post-hoc test: ##p<0.01. One-sample t-test: *p<0.05.

[7] = tested on: β-adrenergic receptor; experiment: cAMP signalling in myometrial cells from different labouring groups, β-adrenergic agonist; type: cell-based, human; conditions: isoproterenol 10 μM; all labouring groups; FIG. 8
Description: Myometrial cells from different labouring groups were treated with IBMX (5 minutes, 0.5 mM) before 1 minute stimulation with IBMX with/without butaprost (10 μM) or isoproterenol (10 μM). cAMP concentrations were normalised to protein. Data shown as mean±SEM, L−n=4. All other groups n=5. Each treatment compared to L− using one-way ANOVA with Dunnett's multiple comparison post-hoc test: **p<0.01, ***p<0.001, ****p<0.0001.

T3 sequence (P43116 whole entry): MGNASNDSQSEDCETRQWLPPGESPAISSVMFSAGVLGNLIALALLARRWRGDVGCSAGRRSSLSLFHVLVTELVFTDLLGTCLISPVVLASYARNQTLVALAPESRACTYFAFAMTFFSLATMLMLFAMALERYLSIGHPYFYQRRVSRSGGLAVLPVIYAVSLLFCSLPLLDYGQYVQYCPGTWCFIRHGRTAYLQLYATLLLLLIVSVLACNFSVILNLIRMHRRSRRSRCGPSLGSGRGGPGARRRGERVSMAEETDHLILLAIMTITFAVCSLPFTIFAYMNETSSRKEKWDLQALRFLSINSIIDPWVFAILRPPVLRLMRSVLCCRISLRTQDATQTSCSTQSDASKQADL
T2 sequence (P43116 whole entry): as above
T1 sequence (P43116 whole entry): as above

SMILES: CCCCCC(O)c1ccc(C2CCC(=O)C2CCCCCCC(=O)O)cc1 (stereo not shown) [AH13205]
- cAMP efficacy at the maximal dose of each ligand [1]: equally efficacious
- intracellular Ca2+ release (maximal fluorescence intensity) [2]: enhanced Ca2+ significantly above vehicle
- PGE2 levels [3]: efficacious activators of the pathway
- effect of OTR activation on ligand's ability to increase intracellular cAMP [4]: significantly reduced
- release of intracellular cAMP [5]: able to elicit release of intracellular cAMP
- calcium response with OT pre-treatment [6]: significantly enhance the calcium response

SMILES: CC(C)NCC(O)c1ccc(O)c(O)c1 (stereo not shown) [isoproterenol]
- agonist-induced cAMP signalling in labouring groups vs non-labouring [7]: but not isoproterenol-induced cAMP signalling, was significantly attenuated
